Results as given in patent publication EP1368020B1, “METHOD FOR IDENTIFYING MAXI-K CHANNEL BLOCKERS” (priority 2001, dated 2002).

Tests used:
Format in all cases: cell-based
[1] = tested on: endogenous potassium conductance of HEK-293 cells; experiment: FRET membrane potential assay (VIPR), high-potassium addition to untransfected HEK-293 cells; conditions: Figure 1; for effect on the fluorescence signal caused by high-potassium addition: different/increasing concentrations of compound; for efficacy of Compound A or Compound B in the presence of Compound 1: selective maxi-K channel blocker Compound 1 present
Method: HEK-293 cells were plated on 96-well poly-D-lysine plates and incubated for about 16 to 24 hours at 37°C. The media was aspirated and the cells were washed once with D-PBS. Cells were incubated with 9 µM coumarin (CC2DMPE)-0.02% pluronic-127 in D-PBS for 30 minutes in the dark. Cells were washed twice with D-PBS, and incubated with 4.5 µM oxanol (DiSBAC2(3)) in the absence (Control) or presence of increasing concentrations of test compound, in the dark for 30 minutes. Plates were loaded onto a VIPR instrument and the fluorescence emission of both dyes was recorded for 10 seconds. A solution containing high-potassium was then added and the fluorescence emission of the dyes was recorded for another 10 seconds. The coumarin/oxanol ratio was calculated under both conditions. Before addition of high-potassium, this ratio was always normalized to 1.
The signal is not affected by the presence of different concentrations of the selective maxi-K channel blocker, Compound 1. […] A useful concentration range for these agents is 3-10 µM. Importantly, in the presence of the selective maxi-K channel blocker Compound 1, the efficacy of either Compound A or Compound B is unaffected.

[2] = molecular target: T1, maxi-K channels transiently expressed in TsA-201 cells (Homo sapiens, UniProt Q12791); experiment: FRET membrane potential assay (VIPR), maxi-K channels transiently expressed in TsA-201 cells; conditions: 3 µM, Figure 2
T1 construct: expressed in transfected cells; host or cells: TsA-201 cells, transient transfection

[3] = molecular target: T2, maxi-K channel (alpha and beta1 subunits) in stably transfected HEK-293 cells (Homo sapiens, UniProt Q12791); experiment: FRET membrane potential assay (VIPR), HEK-293 cells stably transfected with alpha and beta1 subunits of the maxi-K channel
T2 construct: expressed in transfected cells
Method: Transfection of the alpha and beta1 subunits of the maxi-K channel in HEK-293 cells was carried out as follows: HEK-293 cells were plated in 100 mm tissue culture treated dishes at a density of 3x10^6 cells per dish, and a total of five dishes were prepared. Cells were grown in a medium consisting of Dulbecco's Modified Eagle Medium (DMEM) supplemented with 10% Fetal Bovine serum, 1X L-Glutamine, and 1X Penicillin/Streptomycin, at 37°C, 10% CO2. For transfection with Maxi-K hα (pCIneo) and Maxi-K hβ1 (pIRESpuro) DNAs, 150 µl FuGENE6™ was added dropwise into 10 ml of serum free/phenol-red free DMEM and allowed to incubate at room temperature for 5 minutes. Then, the FuGENE6™ solution was added dropwise to a DNA solution containing 25 µg of each plasmid DNA, and incubated at room temperature for 30 minutes. After the incubation period, 2 ml of the FuGENE6™/DNA solution was added dropwise to each plate of cells and the cells were allowed to grow two days under the same conditions as described above. At the end of the second day, cells were put under selection media which consisted of DMEM supplemented with both 600 µg/ml G418 and 0.75 µg/ml puromycin. Cells were grown until separate colonies were formed. Five colonies were collected and transferred to a 6 well tissue culture treated dish. A total of 75 colonies were collected. Cells were allowed to grow until a confluent monolayer was obtained. Cells were then tested for the presence of maxi-K channel alpha and beta 1 subunits using an assay that monitors binding of ^125I-iberiotoxin-D19Y/Y36F to the channel. Cells expressing ^125I-iberiotoxin-D19Y/Y36F binding activity were then evaluated in a functional assay that monitors the capability of maxi-K channels to control the membrane potential of transfected HEK-293 cells using fluorescence resonance energy transfer (FRET) ABS technology with a VIPR instrument. The colony giving the largest signal to noise ratio was subjected to limiting dilution. For this, cells were resuspended at approximately 5 cells/ml, and 200 µl were plated in individual wells in a 96 well tissue culture treated plate, to add ca. one cell per well. A total of two 96 well plates were made. When a confluent monolayer was formed, the cells were transferred to 6 well tissue culture treated plates. A total of 62 wells were transferred. When a confluent monolayer was obtained, cells were tested using the FRET-functional assay. […]
The plates are loaded into a voltage/ion probe reader (VIPR) instrument, and the fluorescence emission of both CC2DMPE and DiSBAC2(3) are recorded for 10 sec. At this point, 100 µl of high-potassium solution (mM): 140 KCl, 2 CaCl2, 1 MgCl2, 20 Hepes-KOH, pH 7.4, 10 glucose are added and the fluorescence emission of both dyes recorded for an additional 10 sec. […]

T2 sequence (Q12791 whole entry): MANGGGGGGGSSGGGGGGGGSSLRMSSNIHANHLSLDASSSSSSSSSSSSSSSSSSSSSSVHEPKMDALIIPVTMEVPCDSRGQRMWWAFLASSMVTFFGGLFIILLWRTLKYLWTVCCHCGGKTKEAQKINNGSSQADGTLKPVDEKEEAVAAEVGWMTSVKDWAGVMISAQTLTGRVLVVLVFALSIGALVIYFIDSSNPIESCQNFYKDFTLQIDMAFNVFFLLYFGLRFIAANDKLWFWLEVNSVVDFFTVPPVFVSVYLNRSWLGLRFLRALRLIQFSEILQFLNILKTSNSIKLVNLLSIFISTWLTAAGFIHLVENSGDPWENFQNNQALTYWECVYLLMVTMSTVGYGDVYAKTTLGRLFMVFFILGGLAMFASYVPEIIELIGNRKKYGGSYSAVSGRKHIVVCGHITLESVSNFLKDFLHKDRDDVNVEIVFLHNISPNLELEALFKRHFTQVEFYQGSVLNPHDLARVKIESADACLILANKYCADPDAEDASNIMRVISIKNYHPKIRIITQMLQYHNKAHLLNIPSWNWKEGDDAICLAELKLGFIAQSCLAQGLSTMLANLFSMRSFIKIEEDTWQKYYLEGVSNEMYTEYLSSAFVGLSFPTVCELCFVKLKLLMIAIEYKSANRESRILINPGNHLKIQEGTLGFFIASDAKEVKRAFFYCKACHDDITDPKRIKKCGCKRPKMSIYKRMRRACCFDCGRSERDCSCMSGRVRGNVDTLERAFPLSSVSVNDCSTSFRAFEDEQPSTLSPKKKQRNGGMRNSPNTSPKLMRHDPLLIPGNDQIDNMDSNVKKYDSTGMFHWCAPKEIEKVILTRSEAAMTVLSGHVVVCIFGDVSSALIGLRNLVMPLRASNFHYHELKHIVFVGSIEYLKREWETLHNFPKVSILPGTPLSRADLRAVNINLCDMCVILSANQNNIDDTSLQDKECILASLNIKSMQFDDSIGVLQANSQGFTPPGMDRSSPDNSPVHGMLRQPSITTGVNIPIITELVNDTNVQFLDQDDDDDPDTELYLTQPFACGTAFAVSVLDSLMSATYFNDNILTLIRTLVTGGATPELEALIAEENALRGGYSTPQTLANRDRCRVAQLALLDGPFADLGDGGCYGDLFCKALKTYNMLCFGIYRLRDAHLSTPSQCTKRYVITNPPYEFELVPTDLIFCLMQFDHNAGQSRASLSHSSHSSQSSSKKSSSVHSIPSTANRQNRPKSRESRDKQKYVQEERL
T2 sequence (Q16558 whole entry partner): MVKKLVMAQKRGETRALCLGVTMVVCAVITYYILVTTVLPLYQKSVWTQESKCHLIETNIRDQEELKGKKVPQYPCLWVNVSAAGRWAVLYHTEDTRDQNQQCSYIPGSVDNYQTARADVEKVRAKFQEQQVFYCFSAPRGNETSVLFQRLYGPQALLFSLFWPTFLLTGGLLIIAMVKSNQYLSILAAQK
T1 sequence (Q12791 whole entry): as the sequence (Q12791 whole entry) above
T1 sequence (Q16558 whole entry partner): as the sequence (Q16558 whole entry partner) above

| effect on control signal (maxi-K channel activity) [2] | block of the signal generated by addition of a high-potassium solution ([3]; compound alone, no endogenous conductance blocker, Figure 3) | inhibition of the signal generated by addition of a high-potassium solution ([3]; in the presence of Compound A, Figure 3) | SMILES | effect on the fluorescence signal caused by high-potassium addition [1] | inhibition of the control signal ([3]; 3 µM Compound A present in all wells, increasing concentrations of compound, Figure 4) | efficacy of Compound A or Compound B in the presence of Compound 1 [1] | effect on the magnitude of the signal caused by addition of high-potassium solution ([3]; Compound A alone, Figure 3) |
| --- | --- | --- | --- | --- | --- | --- | --- |
| completely inhibits the control signal | only partially blocks the signal | complete inhibition of the signal | COc1ccc2c(c1)c(CC(=O)N(C(=O)NC1CCCCC1)C1CCCCC1)c(C)n2C(=O)c1ccc(Cl)cc1 [Compound 1] | not affected | concentration-dependent inhibition of the control signal |  |  |
|  |  |  | CCCNC(=O)OC1CCC(CNC(=O)c2ccccc2OC)(c2ccccc2)CC1 (stereo not shown) [Compound A] | concentration-dependent inhibition of the fluorescence signal |  | unaffected | no significant effect on the magnitude of the signal |
|  |  |  | COc1ccccc1C(=O)NCC1(c2ccccc2)CCC(=O)CC1 [Compound B] | concentration-dependent inhibition of the fluorescence signal |  | unaffected |  |
